Legend:
Test in all cases: radiometric kinase profiling (33 PanQinase)
Format in all cases: biochemical
GRK6 = target: T1, GRK6 (Homo sapiens, UniProt P43250); conditions: read-out: Inhibitory effect (%) GRK6
T1 construct: purchased ProQinase (33PanQinase Activity Assay)
How it was run: (§1)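 Enzyme/substrate mixes were incubated with [γ-33P]-ATP and compound (added as a 0.1 μM solution in 10% DMSO) at 30 °C for 60 min, then stopped with H3PO4 and washed with NaCl. 33P incorporation was scintillation-counted, and residual activity (%) was normalized to untreated control and background.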

SLK = target: T2, SLK (Homo sapiens, UniProt Q9H2G2); conditions: read-out: Inhibitory effect (%) SLK
T2 construct: purchased ProQinase (33PanQinase Activity Assay)
How it was run: as §1

CAMK1D = target: T3, CAMK1D (Homo sapiens, UniProt Q8IU85); conditions: read-out: Inhibitory effect (%) CAMK1D
T3 construct: purchased Proqinase, Germany
How it was run: as §1

IKBKB = target: T4, IKBKB (Homo sapiens, UniProt O14920); conditions: read-out: Inhibitory effect (%) IKBKB
T4 construct: purchased ProQinase (33PanQinase Activity Assay)
T4 sequence (O14920 1-756): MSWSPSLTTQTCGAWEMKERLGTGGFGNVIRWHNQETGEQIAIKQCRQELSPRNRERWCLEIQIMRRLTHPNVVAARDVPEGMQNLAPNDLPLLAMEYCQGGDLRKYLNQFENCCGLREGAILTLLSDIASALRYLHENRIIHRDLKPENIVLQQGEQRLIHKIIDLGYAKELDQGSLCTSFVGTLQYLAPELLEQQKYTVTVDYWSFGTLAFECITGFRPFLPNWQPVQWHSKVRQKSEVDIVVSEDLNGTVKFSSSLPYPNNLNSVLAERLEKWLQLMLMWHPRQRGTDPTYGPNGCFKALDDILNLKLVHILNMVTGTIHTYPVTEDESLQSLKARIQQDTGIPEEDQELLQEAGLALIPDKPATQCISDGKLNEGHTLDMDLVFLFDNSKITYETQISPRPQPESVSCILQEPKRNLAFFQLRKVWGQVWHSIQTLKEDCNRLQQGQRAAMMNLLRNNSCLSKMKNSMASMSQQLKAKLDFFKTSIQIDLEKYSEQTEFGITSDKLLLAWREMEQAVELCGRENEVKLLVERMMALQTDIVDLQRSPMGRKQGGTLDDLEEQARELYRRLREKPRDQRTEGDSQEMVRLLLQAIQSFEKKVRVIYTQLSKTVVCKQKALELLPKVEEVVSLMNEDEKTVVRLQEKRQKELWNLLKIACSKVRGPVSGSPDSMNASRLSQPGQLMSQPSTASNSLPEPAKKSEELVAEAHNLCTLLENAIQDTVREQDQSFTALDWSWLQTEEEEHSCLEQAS
How it was run: as §1

FYN = target: T5, FYN (Homo sapiens, UniProt P06241); conditions: read-out: Inhibitory effect (%) FYN
T5 construct: purchased ProQinase (33PanQinase Activity Assay)
How it was run: as §1

PLK4 = target: T6, PLK4 (Homo sapiens, UniProt O00444); conditions: read-out: Inhibitory effect (%) PLK4
T6 construct: purchased ProQinase (33PanQinase Activity Assay)
T6 sequence (O00444 1-970): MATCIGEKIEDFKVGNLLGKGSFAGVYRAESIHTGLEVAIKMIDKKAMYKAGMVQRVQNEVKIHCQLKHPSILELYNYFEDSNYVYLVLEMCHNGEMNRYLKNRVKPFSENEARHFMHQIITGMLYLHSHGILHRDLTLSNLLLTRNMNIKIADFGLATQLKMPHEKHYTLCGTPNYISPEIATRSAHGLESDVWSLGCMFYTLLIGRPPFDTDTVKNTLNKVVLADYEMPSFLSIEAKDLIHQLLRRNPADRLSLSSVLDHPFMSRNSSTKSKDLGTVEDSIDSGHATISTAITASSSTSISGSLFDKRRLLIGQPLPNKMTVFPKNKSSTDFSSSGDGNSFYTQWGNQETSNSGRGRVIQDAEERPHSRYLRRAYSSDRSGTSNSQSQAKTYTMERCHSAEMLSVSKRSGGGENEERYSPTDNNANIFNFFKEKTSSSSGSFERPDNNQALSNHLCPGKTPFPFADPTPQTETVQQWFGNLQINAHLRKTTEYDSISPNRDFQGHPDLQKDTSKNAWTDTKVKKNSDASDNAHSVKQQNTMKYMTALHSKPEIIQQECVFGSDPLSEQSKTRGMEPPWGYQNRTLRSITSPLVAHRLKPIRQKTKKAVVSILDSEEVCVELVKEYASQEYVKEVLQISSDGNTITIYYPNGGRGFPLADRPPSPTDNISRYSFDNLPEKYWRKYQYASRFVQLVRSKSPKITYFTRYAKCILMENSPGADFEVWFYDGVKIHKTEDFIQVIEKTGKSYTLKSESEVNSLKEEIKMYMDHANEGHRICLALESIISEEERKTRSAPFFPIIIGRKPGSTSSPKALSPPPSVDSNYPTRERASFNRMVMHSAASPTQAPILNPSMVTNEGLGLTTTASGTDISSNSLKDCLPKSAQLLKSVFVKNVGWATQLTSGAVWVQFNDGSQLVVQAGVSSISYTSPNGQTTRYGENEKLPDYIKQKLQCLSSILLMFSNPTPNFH
How it was run: as §1

MAP3K10 = target: T7, MAP3K10 (Homo sapiens, UniProt Q02779); conditions: read-out: Inhibitory effect (%) MAP3K10
T7 construct: purchased ProQinase (33PanQinase Activity Assay)
How it was run: as §1

SRPK1 = target: T8, SRPK1 (Homo sapiens, UniProt Q96SB4); conditions: read-out: Inhibitory effect (%) SRPK1
T8 construct: purchased ProQinase (33PanQinase Activity Assay)
How it was run: as §1

MAP2K1 = target: T9, MAP2K1 (Homo sapiens, UniProt Q02750); conditions: read-out: Inhibitory effect (%) MAP2K1
T9 construct: purchased ProQinase (33PanQinase Activity Assay)
How it was run: as §1

CSNK1A1 = target: T10, CSNK1A1 (Homo sapiens, UniProt P48729); conditions: read-out: Inhibitory effect (%) CSNK1A1
T10 construct: purchased Proqinase, Germany
How it was run: as §1

EPHA2 = target: T11, EPHA2 (Homo sapiens, UniProt P29317); conditions: read-out: Inhibitory effect (%) EPHA2
T11 construct: purchased Proqinase, Germany
How it was run: as §1

DNAPK = target: T12, DNAPK (Homo sapiens, UniProt P78527); conditions: read-out: Inhibitory effect (%) DNAPK
T12 construct: purchased Proqinase, Germany
How it was run: as §1

T1 sequence (P43250 whole entry): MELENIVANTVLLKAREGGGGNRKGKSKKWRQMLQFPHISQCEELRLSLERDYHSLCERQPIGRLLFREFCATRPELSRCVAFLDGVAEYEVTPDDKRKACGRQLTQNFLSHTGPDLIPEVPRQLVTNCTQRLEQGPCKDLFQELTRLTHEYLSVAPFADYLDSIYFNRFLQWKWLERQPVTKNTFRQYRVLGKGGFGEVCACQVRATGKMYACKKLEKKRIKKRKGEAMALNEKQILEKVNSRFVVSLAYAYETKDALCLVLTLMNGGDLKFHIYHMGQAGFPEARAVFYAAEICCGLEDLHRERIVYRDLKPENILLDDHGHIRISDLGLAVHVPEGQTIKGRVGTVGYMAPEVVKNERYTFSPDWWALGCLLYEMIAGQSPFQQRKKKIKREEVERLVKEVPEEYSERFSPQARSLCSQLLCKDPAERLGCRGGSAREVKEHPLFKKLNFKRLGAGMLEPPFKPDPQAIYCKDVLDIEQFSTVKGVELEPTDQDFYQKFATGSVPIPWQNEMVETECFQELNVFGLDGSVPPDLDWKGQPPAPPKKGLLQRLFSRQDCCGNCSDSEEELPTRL
T5 sequence (P06241 whole entry): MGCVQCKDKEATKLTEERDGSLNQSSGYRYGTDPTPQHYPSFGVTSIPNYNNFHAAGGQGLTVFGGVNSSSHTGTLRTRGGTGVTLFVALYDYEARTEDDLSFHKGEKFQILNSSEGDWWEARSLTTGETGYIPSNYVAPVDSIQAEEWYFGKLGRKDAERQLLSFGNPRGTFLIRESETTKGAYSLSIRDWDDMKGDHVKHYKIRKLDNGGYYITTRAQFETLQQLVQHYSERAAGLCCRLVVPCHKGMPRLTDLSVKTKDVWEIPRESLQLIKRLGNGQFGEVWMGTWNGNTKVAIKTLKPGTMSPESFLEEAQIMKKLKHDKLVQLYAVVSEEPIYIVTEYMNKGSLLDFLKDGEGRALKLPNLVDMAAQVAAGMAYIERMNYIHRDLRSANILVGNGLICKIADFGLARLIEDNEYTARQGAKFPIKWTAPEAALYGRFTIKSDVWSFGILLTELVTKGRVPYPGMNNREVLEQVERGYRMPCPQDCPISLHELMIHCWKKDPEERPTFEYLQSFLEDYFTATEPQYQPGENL
T9 sequence (Q02750 whole entry): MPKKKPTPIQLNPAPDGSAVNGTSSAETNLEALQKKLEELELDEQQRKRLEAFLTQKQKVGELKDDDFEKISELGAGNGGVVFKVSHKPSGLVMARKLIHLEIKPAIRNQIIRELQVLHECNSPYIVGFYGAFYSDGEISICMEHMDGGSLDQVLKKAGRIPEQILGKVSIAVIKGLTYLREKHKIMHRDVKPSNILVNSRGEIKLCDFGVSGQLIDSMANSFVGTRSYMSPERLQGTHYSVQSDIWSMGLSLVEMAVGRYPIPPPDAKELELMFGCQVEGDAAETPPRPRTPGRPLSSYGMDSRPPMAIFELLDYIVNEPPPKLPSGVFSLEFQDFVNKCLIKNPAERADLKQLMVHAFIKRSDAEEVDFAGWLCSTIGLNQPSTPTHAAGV
T2 sequence (Q9H2G2 whole entry): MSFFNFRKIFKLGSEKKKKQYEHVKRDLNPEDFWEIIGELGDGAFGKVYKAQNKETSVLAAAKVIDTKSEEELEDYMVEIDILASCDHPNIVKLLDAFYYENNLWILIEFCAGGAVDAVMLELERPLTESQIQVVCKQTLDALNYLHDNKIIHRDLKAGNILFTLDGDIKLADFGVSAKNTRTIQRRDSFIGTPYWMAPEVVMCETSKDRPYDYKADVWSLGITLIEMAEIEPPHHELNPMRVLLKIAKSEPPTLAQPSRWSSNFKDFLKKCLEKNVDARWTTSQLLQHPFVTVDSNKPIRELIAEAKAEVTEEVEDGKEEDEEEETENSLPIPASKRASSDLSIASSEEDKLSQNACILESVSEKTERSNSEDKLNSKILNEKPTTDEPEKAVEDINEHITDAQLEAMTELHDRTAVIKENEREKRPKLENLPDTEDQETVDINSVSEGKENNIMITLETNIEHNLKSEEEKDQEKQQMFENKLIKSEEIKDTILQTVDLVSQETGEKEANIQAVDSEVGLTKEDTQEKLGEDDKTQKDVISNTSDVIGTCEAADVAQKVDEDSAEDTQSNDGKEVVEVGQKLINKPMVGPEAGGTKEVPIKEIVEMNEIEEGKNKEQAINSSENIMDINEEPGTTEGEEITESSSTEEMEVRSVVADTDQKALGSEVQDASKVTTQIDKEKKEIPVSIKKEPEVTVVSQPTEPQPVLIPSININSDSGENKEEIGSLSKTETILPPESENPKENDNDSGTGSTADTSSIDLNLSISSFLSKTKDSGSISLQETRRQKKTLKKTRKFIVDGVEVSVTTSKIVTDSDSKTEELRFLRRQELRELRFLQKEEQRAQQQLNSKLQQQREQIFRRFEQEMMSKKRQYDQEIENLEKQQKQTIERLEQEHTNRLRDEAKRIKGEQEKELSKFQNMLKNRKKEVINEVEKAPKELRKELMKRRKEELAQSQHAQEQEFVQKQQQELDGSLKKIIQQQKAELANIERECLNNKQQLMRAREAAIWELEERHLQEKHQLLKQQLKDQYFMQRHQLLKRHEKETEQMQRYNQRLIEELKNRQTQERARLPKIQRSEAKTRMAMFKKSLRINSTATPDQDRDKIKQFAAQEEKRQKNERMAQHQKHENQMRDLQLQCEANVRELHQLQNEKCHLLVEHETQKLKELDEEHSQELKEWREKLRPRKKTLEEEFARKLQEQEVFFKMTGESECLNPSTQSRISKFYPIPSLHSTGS
T3 sequence (Q8IU85 whole entry): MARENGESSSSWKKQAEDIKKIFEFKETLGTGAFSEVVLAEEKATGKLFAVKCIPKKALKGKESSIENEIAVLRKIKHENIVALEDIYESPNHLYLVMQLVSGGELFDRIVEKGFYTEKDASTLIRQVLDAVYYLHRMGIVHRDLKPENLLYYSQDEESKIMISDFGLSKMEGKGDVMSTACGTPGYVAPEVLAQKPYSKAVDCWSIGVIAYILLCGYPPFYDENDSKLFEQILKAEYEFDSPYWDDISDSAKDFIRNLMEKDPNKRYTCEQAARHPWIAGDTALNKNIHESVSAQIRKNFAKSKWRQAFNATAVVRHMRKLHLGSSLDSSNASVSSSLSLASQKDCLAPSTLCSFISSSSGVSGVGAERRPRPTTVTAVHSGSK
T7 sequence (Q02779 whole entry): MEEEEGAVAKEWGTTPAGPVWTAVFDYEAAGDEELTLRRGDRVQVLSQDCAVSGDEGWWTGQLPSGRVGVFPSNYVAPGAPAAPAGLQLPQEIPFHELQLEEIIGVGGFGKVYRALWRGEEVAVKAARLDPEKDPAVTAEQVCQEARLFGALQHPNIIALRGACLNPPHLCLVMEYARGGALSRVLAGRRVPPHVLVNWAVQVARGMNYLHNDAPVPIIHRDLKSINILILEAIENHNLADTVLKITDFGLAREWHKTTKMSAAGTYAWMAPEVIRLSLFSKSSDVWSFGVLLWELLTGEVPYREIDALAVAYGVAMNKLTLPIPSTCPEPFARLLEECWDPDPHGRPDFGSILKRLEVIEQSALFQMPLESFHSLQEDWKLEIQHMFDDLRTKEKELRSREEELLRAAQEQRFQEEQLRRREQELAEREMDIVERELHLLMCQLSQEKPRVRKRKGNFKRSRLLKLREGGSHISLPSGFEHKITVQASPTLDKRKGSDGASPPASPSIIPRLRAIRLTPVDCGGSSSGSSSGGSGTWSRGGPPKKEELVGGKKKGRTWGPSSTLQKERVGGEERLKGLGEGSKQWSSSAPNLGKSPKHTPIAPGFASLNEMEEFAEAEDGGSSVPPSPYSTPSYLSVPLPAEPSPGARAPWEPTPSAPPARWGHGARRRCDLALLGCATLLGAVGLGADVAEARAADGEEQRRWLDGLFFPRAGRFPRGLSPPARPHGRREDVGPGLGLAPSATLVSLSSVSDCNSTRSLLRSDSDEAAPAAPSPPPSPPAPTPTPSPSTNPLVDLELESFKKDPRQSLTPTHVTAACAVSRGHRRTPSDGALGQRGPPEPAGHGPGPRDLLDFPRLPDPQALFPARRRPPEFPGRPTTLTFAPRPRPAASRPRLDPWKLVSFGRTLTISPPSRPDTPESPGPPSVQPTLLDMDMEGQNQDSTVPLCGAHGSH
T10 sequence (P48729 whole entry): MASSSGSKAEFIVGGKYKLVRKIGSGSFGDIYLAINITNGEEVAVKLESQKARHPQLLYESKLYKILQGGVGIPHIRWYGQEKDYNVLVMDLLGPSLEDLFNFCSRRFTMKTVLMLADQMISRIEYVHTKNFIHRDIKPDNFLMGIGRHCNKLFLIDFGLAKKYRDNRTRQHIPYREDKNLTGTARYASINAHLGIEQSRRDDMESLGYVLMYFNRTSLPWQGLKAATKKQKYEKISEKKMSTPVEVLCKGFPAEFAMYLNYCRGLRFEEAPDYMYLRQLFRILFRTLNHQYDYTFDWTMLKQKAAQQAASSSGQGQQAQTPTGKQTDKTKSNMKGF

| SMILES | inhibition at 0.1 µM (GRK6) | inhibition at 0.1 µM (SLK) | inhibition at 0.1 µM (CAMK1D) | inhibition at 0.1 µM (IKBKB) | inhibition at 0.1 µM (FYN) | inhibition at 0.1 µM (PLK4) | inhibition at 0.1 µM (MAP3K10) | inhibition at 0.1 µM (SRPK1) | inhibition at 0.1 µM (MAP2K1) | inhibition at 0.1 µM (CSNK1A1) | inhibition at 0.1 µM (EPHA2) | inhibition at 0.1 µM (DNAPK) |
| --- | --- | --- | --- | --- | --- | --- | --- | --- | --- | --- | --- | --- |
| CN1CCC(=O)NCCNc2ccn3ncc(c3n2)-c2cccc(c2)C1 [OD29] | 0.04% | 27.7% | -7.41% | -9.1% | 24.6% | 4.1% | 1.57% | 21.5% | 7.68% | -2.21% | 10.4% | 12.9% |
| c1ccc2c(-c3cnn4cc(-c5ccc(N6CCNCC6)cc5)cnc34)ccnc2c1 [LDN-193189, reference compound] | -1.81% | -18.4% | 4.59% | 1.34% | 28.1% | -34.4% | -26.4% | -16.5% | 11.1% | -3.63% | -17.2% | -29.6% |
| CN1CCc2cccc(c2)Nc2nccc(n2)N2CCCc3cc(ccc32)C1 [OD16] | -2.14% | 26.5% | -5.9% | 1.32% | -31% | 41.4% | 1.85% | -24.9% | 5.48% | 0.99% | -21.9% | -8.88% |
